Experiments:
Format in all cases: in vivo
[1] = tested on: Alopecurus myosuroides; test: Pre-emergence test, weed control; settings: 3 weeks after treatment, rating 0-100 (100=death), Table 3
Method: (§1) The pre-emergence tests involve spraying a liquid formulation of the compound onto the soil in which the seeds of the plant species mentioned above has recently been sown.
(§2) The soil used in the tests is a prepared horticultural loam. The formulations used in the tests are prepared from solutions of the test compounds in acetone containing 0.4% by weight of an alkylphenol/ethylene oxide condensate available under the trade mark TRITON X-155.
(§3) In these tests untreated sown soil is used as control. The herbicidal effects of the test compounds are assessed visually three weeks after spraying the soil and are recorded an a 0 to 100 scale. A rating 0 indicates growth as untreated control, a rating 100 indicates death. An increase of 10 unit an the linear scale approximates to a 10% increase in the level of effect. The results of the assessment are set out in Tables 1 to 4.

[2] = tested on: Apera spica-venti; test: Pre-emergence test, weed control; settings: 3 weeks after treatment, rating 0-100 (100=death), Table 3
Method: as §1, §2, §3

[3] = tested on: Galium aparine; test: Pre-emergence test, weed control; settings: 3 weeks after treatment, rating 0-100 (100=death), Table 3
Method: as §1, §2, §3

[4] = tested on: Lamium purpureum; test: Pre-emergence test, weed control; settings: 3 weeks after treatment, rating 0-100 (100=death), Table 3
Method: as §1, §2, §3

[5] = tested on: Lolium perenne; test: Pre-emergence test, weed control; settings: 3 weeks after treatment, rating 0-100 (100=death), Table 3
Method: as §1, §2, §3

[6] = tested on: Matricaria inodora; test: Pre-emergence test, weed control; settings: 3 weeks after treatment, rating 0-100 (100=death), Table 3
Method: as §1, §2, §3

[7] = tested on: Poa annua; test: Pre-emergence test, weed control; settings: 3 weeks after treatment, rating 0-100 (100=death), Table 3
Method: as §1, §2, §3

[8] = tested on: Setaria viridis; test: Pre-emergence test, weed control; settings: 3 weeks after treatment, rating 0-100 (100=death), Table 3
Method: as §1, §2, §3

[9] = tested on: Stellaria media; test: Pre-emergence test, weed control; settings: 3 weeks after treatment, rating 0-100 (100=death), Table 3
Method: as §1, §2, §3

[10] = tested on: Veronica persica; test: Pre-emergence test, weed control; settings: 3 weeks after treatment, rating 0-100 (100=death), Table 3
Method: as §1, §2, §3

[11] = tested on: PAPRH; test: Pre-emergence test, weed control; settings: 3 weeks after treatment, rating 0-100 (100=death), Table 3
Method: as §1, §2
as §3, with “These acetone solutions are diluted with water and the resulting formulations applied at dosage levels corresponding to 15 g, 30 g, 60 g, 120 g or 240 g of active material per hectare in a volume equivalent to 900 liters per hectare. In” for “In”

[12] = tested on: VIOAR; test: Pre-emergence test, weed control; settings: 3 weeks after treatment, rating 0-100 (100=death), Table 3
Method: as §1, §2
as §3, with “These acetone solutions are diluted with water and the resulting formulations applied at dosage levels corresponding to 15 g, 30 g, 60 g, 120 g or 240 g of active material per hectare in a volume equivalent to 900 liters per hectare. In” for “In”

[13] = tested on: Triticum aestivum variety “Kanzler”; test: Pre-emergence test, selectivity; settings: 3 weeks after treatment, rating 0-100 (100=death), Table 4
Method: as §1, §2
as §3, with “These acetone solutions are diluted with water and the resulting formulations applied at dosage levels corresponding to 15 g, 30 g, 60 g, 120 g or 240 g of active material per hectare in a volume equivalent to 900 liters per hectare. In” for “In”

[14] = tested on: Triticum aestivum variety “Monopol”; test: Pre-emergence test, selectivity; settings: 3 weeks after treatment, rating 0-100 (100=death), Table 4
Method: as §1, §2
as §3, with “These acetone solutions are diluted with water and the resulting formulations applied at dosage levels corresponding to 15 g, 30 g, 60 g, 120 g or 240 g of active material per hectare in a volume equivalent to 900 liters per hectare. In” for “In”

[15] = tested on: wheat; test: Pre-emergence test, tolerance in wheat; settings: pre-emergence
Method: as §1, §2
as §3, with “These acetone solutions are diluted with water and the resulting formulations applied at dosage levels corresponding to 15 g, 30 g, 60 g, 120 g or 240 g of active material per hectare in a volume equivalent to 900 liters per hectare. In” for “In”

[16] = tested on: grasses and broadleaf weeds; test: Pre-emergence test, overall weed control
Method: as §1, §2
as §3, with “These acetone solutions are diluted with water and the resulting formulations applied at dosage levels corresponding to 15 g, 30 g, 60 g, 120 g or 240 g of active material per hectare in a volume equivalent to 900 liters per hectare. In” for “In”

FC(F)(F)c1ccc(-c2nccc(Oc3ccnc(Cl)c3)n2)cc1 [CTP, 4-(2-chloropyrid-4-yloxy)-2-(4-trifluoromethyl-phenyl)pyrimidine]
100: ALOMY weed control rating ([1]; 0.240 kg/ha) | APESV weed control rating ([2]; 0.030 kg/ha) | APESV weed control rating ([2]; 0.060 kg/ha) | APESV weed control rating ([2]; 0.120 kg/ha) | APESV weed control rating ([2]; 0.240 kg/ha) | LAMPU weed control rating ([4]; 0.060 kg/ha) | LAMPU weed control rating ([4]; 0.120 kg/ha) | LAMPU weed control rating ([4]; 0.240 kg/ha) | LOLPE weed control rating ([5]; 0.240 kg/ha) | MATIN weed control rating ([6]; 0.240 kg/ha) | POAAN weed control rating ([7]; 0.030 kg/ha) | POAAN weed control rating ([7]; 0.060 kg/ha) | POAAN weed control rating ([7]; 0.120 kg/ha) | POAAN weed control rating ([7]; 0.240 kg/ha) | SETVI weed control rating ([8]; 0.060 kg/ha) | SETVI weed control rating ([8]; 0.120 kg/ha) | SETVI weed control rating ([8]; 0.240 kg/ha) | STEME weed control rating ([9]; 0.060 kg/ha) | STEME weed control rating ([9]; 0.120 kg/ha) | STEME weed control rating ([9]; 0.240 kg/ha) | VERPE weed control rating ([10]; 0.030 kg/ha) | VERPE weed control rating ([10]; 0.060 kg/ha) | VERPE weed control rating ([10]; 0.120 kg/ha) | VERPE weed control rating ([10]; 0.240 kg/ha) | PAPRH weed control rating ([11]; 0.030 kg/ha) | PAPRH weed control rating ([11]; 0.060 kg/ha) | PAPRH weed control rating ([11]; 0.120 kg/ha) | PAPRH weed control rating ([11]; 0.240 kg/ha) | VIOAR weed control rating ([12]; 0.060 kg/ha) | VIOAR weed control rating ([12]; 0.120 kg/ha) | VIOAR weed control rating ([12]; 0.240 kg/ha)
120 g/ha: dose at which complete control of all the grasses and broadleaf weeds was achieved [16]
240 g/ha: maximum tolerated dose in wheat / dose at which sufficiently selective in wheat [15]
65: GALAP weed control rating ([3]; 0.060 kg/ha)
90: LAMPU weed control rating ([4]; 0.030 kg/ha)
98: LOLPE weed control rating ([5]; 0.120 kg/ha) | MATIN weed control rating ([6]; 0.030 kg/ha) | SETVI weed control rating ([8]; 0.030 kg/ha)
5: TRZAWK rating (Selectivity) ([13]; 0.240 kg/ha) | TRZAWM rating (Selectivity) ([14]; 0.240 kg/ha)
10: GALAP weed control rating ([3]; 0.030 kg/ha)
93: GALAP weed control rating ([3]; 0.120 kg/ha) | LOLPE weed control rating ([5]; 0.030 kg/ha)
95: GALAP weed control rating ([3]; 0.240 kg/ha) | LOLPE weed control rating ([5]; 0.060 kg/ha)
2: TRZAWM rating (Selectivity) ([14]; 0.120 kg/ha)
1: TRZAWK rating (Selectivity) ([13]; 0.120 kg/ha) | TRZAWM rating (Selectivity) ([14]; 0.060 kg/ha)
80: STEME weed control rating ([9]; 0.030 kg/ha)
35: ALOMY weed control rating ([1]; 0.060 kg/ha)
15: ALOMY weed control rating ([1]; 0.030 kg/ha)
99: ALOMY weed control rating ([1]; 0.120 kg/ha) | MATIN weed control rating ([6]; 0.060 kg/ha) | MATIN weed control rating ([6]; 0.120 kg/ha) | VIOAR weed control rating ([12]; 0.030 kg/ha)
